Key:
[1] = target: T1, human STING protein (140-379) (Homo sapiens, UniProt Q86WV6, H232R); assay: Radiometric filtration binding competition assay (WT_FBA_HIS-SUMO-hSWAT); settings: read-out: WT-hSWAT IC50
T1 construct: 6XHIS-SUMO-hSTING (140-379); made in house; host or cells: BL-21(DE3) E. coli, pET vector
Procedure: A radiometric filtration binding competition assay was performed to quantify the binding affinity of compounds of the present application for the human or mouse STING protein, or associated HAQ human isoform. The competition format filtration binding assay detects the ability of small molecule compounds from binding to and inhibiting the subsequent binding of a tritiated [H3] […] The resulting dose response was fit by non-linear regression to determine an IC50 value, from which a Ki value for each compound was extrapolated.
Briefly, the recombinant C-terminal ligand binding domain of the human STING protein (140-379) or mouse STING protein (139-328) [0.5 μM] was incubated in the presence of a compound of the present application (8 point, 2 fold dilution starting at 300 μM) for 30 min or under control conditions. […] The resulting complexes were then filtered, dried, and scintillation fluid was added and the remaining radio signal was measured to determine the degree of compound ligand inhibition. This assay format was optimized for both the WT and HAQ isoforms of the human protein and the mouse orthologue protein.
Parameters optimized: • a. Form of protein: 6×HIS-SUMO tag or untagged • b. Concentration of target protein: Minimum concentration that achieved >80 max signal • c. Assay DMSO concentration: 10%-0.1% • d. Assay Buffer: Base (Tris or phosphate), Salt concentration, +/−Tween (0.1-2%) • e. […] Probe Concentration: Minimum concentration that achieved max assay window • g. Assay Format: Scintillation Proximity Bead or Filtration Binding Plate • h. Assay Plate: 384 vs 96 well format • i. Assay incubation times for successive incubation steps
WT-hSWAT: WT_FBA_HIS-SUMO-hSWAT IC50 (μM) (“WT”=Wild-type); and WT-mSWAT: MOUSE_FBA_HIS-SUMO-mSWAT C50 (μM) which is the mouse isoform of STING protein.

hSTING-R232 = target: T2, hSTING-R232 (Homo sapiens, UniProt Q86WV6, H232R); assay: STING Differential Scanning Fluorimetry (DSF) assay, human; format: binding; settings: human STING R232-WT, 5 μM protein
T2 construct: recombinant mouse or human STING protein (aa140-379); 6xHis-SUMO elsewhere) (cleaved yes); made in house
Procedure: A STING DSF assay was performed to determine protein thermostability shift in response to small molecule ligand binding. A STING thermostability shift assay based on differential scanning fluorimetry was used to measure (1) the net shift in melting temperature (ΔTm)between the apo and ligand-bound states of the STING protein and (2) the concentration of the thermal denaturation transition (FC50) as a surrogate measure of binding affinity (Kd). Briefly, recombinant mouse or human STING protein (aa140-379) comprising the C-terminal binding domain (R232-WT) were purified by affinity chromatography and further processed to remove the purification tag, followed by gel filtration to achieve purity >95%. Protein in assay buffer was transferred to a 384 well plate and incubated with the hydrophobic fluorescent dye SYBR Orange. A temperature ramp was applied to the plate and the resulting dye fluorescence was plotted as a function of temperature. The first derivative of this function (dF/dT) was then used to extrapolate the melting temperature of the protein at various concentrations of compound and determine the thermal denaturation profile of a protein/compound complex.
2. 5 μM purified Target STING Protein
4. Buffer: 100 mM NaCl, 30 mM HEPES, pH 7.5
5. Thermal Ramp: 0.5° C./min
7. 11 point, 2 fold dilution, duplicate, 300 μM high concentrations

STING protein = target: T3, STING protein (Homo sapiens, UniProt Q86WV6, H232R); assay: Cell based reporter assay of IRF activation (THP1-dual-KI R232, IRF luciferase); settings: THP-1; read-out: THP1-dual-KI R232_IRF(Luciferase)_Activity Maximum measured (%)
T3 construct: host or cells: THP-1 dual reporter cells, TMEM173 modified from HAQ to R232 (THP1-dual-KI R232)
Excerpt: Cell reporter assays were developed to measure the ability of compounds of the application to activate the STING protein and activate both IRF/IFN and the NFkB signaling pathways in the myeloid derived cell line THP-1, which is commercially available from several suppliers. Briefly, THP-1 monocytes were transfected and selected for stable integration of 2 reporter constructs. Clones incorporating stably integrated vectors were further selected by antibiotic resistance to blastocidin and zeocin. The reporter constructs included: (1) firefly luciferase reporter gene under the control of an ISG54 promoter fused to five interferon (IFN)-stimulated response elements to measure IRF transcription factor binding activity and (2) secreted embryonic alkaline phosphatase reporter gene under transcription control of an IFN-beta minimal promoter fused to 5 copies of the NFkB consensus transcriptional response element and 3 copies of the c-Rel binding site.
The resulting THP-1 cell line was further modified to incorporate 3 amino acid point mutations (H71R A230G Q293R). This modification of the native TMEM173 gene in THP-1 cells (HAQ) was designed to produce a cell reporter that expressed the most common allelic variant in the human population (THP-1 R232, available from InvivoGen). Alternatively, the TMEM173 gene was knocked out to provide a congenic control to counter-screen for compound activation that was independent of the STING protein (THP-1 STING KO).
Once cell lines were established, reporter assay protocols were developed and optimized to screen small molecule compounds for agonist activity. Assay optimization for efficacy and Z′ value included titration of the following parameters:
1. No pre-activation with PMA
2. […]cells/well in 96 well plate format
7. Cell Titer Glo reagent (Promega) following supermatant removal
9. 8 point, 2 fold, duplicate starting at 150 μM PP28T

T1 sequence (Q86WV6 140-379 H232R): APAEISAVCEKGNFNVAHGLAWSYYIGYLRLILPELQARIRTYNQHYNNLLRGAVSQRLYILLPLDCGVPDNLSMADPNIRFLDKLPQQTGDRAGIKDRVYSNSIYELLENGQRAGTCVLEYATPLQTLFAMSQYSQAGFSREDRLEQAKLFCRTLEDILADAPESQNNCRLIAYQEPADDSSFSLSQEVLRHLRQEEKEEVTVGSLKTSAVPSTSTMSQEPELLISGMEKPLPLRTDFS
T2 sequence (Q86WV6 140-379 H232R): as above
T3 sequence (Q86WV6 whole entry H232R): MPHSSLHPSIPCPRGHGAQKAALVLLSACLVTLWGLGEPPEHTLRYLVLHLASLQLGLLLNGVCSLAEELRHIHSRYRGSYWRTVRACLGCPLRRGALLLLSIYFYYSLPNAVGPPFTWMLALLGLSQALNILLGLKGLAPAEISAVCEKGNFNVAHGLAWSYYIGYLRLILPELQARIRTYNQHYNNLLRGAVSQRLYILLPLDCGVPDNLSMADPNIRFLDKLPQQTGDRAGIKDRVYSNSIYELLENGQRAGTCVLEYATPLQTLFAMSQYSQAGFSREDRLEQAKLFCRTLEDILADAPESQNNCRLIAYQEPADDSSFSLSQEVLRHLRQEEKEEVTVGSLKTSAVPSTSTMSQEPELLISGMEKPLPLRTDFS

| SMILES | IC50 [1] [µM] | WT_DSF_hSWAT Tm Shift (° C.) (hSTING-R232) | Emax (STING protein) [%] |
| --- | --- | --- | --- |
| CSc1c(Cl)ccc2c(=O)c3ccc(NCC4COC4)nc3n(CC(=O)O)c12 [Compound 55, sodium 2-(8-chloro-9-(methylthio)-2-((oxetan-3-ylmethyl)amino)-5-oxobenzo[b][1,8]naphthyridin-10(5H)-yl)acetate] | 20 to 100 | D (“D” > 7° C.) | > 50 |
| CCOc1nc2c(cc1Cl)c(=O)c1ccc(Cl)c(N(C)C)c1n2CC(=O)O [Compound 18, 2-(3,8-dichloro-9-(dimethylamino)-2-ethoxy-5-oxobenzo[b][1,8]naphthyridin-10(5H)-yl) acetic acid] | < 20 | C (“C” = 2-7° C.) | > 50 |
| CSc1c(Cl)ccc2c(=O)c3ccc(C(C)(C)C)nc3n(CC(=O)O)c12 [Compound 12] | < 20 | D (“D” > 7° C.) | > 50 |
| Cc1ccc2c(=O)c3ccc(Cl)c(N(C)C)c3n(CC(=O)O)c2n1 [Compound 4] | 20 to 100 | D (“D” > 7° C.) | > 50 |
| CSc1c(Cl)ccc2c(=O)c3ccc(N(C)CC4CC(F)(F)C4)nc3n(CC(=O)O)c12 [Compound 36, Sodium 2-(8-chloro-2-(((3,3-difluorocyclobutyl)methyl)(methyl)amino)-9-(methylthio)-5-oxobenzo[b][1,8]naphthyridin-10(5H)-yl)acetate] | 20 to 100 | D (“D” > 7° C.) | > 50 |
| Cc1ccc2c(=O)c3ccc(N(C)C)nc3n(CC(=O)O)c2c1N(C)C [Compound 61, sodium 2-(2,9-bis(dimethylamino)-8-methyl-5-oxobenzo[b][1,8]naphthyridin-10(5H)-yl)acetate] | 20 to 100 | D (“D” > 7° C.) | > 50 |
| CSc1c(Cl)ccc2c(=O)c3ccc(N(C)CCS(C)(=O)=O)nc3n(CC(=O)O)c12 [Compound 34, Sodium 2-{8-chloro-2-[(2-methanesulfonylethyl)(methyl)amino]-9-(methylsulfanyl)-5-oxobenzo[b]1,8-naphthyridin-10-yl}acetate] | 20 to 100 | D (“D” > 7° C.) | 25 to 50 |
| COc1c(Cl)ccc2c(=O)c3ccc(C(C)C)nc3n(CC(=O)O)c12 [Compound 1] | 100 to 300 | D (“D” > 7° C.) | > 50 |
| CCOc1c(Cl)ccc2c(=O)c3ccc(N(C)CC4CCOCC4)nc3n(CC(=O)O)c12 [Compound 33, 2-(8-chloro-9-ethoxy-2-(methyl((tetrahydro-2H-pyran-4-yl)methyl)amino)-5-oxobenzo[b][1,8]naphthyridin-10(5H)-yl)acetic acid] | 20 to 100 | D (“D” > 7° C.) | > 50 |
| COCCN(c1ccc2c(=O)c3ccc(Cl)c(SC)c3n(CC(=O)O)c2n1)[C@H]1C[C@@H](OC)C1 [Compound 74, sodium 2-(8-chloro-2-(((1s,3s)-3-methoxycyclobutyl)(2-methoxyethyl)amino)-9-(methylthio)-5-oxobenzo[b][1,8]naphthyridin-10(5H)-yl)acetate] | 100 to 300 | D (“D” > 7° C.) | > 50 |
| CSc1c(Cl)ccc2c(=O)c3ccc(N(C)C4CC(OC(F)F)C4)nc3n(CC(=O)O)c12 (stereo not drawn) [Compound 45, Sodium 2-(8-chloro-2-((3-(difluoromethoxy)cyclobutyl)(methyl)amino)-9-(methylthio)-5-oxobenzo[b][1,8]naphthyridin-10(5H)-yl)acetate] | 20 to 100 | D (“D” > 7° C.) | > 50 |
| Cc1ccc2c(=O)c3c(O)cc(Cl)c(N(C)C)c3n(CC(=O)O)c2n1 [Compound 9] | 100 to 300 | C (“C” = 2-7° C.) | > 50 |
| CSc1c(C)ccc2c(=O)c3ccc(N(C)C)nc3n(CC(=O)O)c12 [Compound 62, sodium 2-(2-(dimethylamino)-8-methyl-9-(methylthio)-5-oxobenzo[b][1,8]naphthyridin-10(5H)-yl)acetate] | 20 to 100 | D (“D” > 7° C.) | > 50 |
| CCN(c1ccc2c(=O)c3ccc(Cl)c(SC)c3n(CC(=O)O)c2n1)C1COC1 [Compound 30, sodium 2-(8-chloro-2-(ethyl(oxetan-3-yl)amino)-9-(methylthio)-5-oxobenzo[b][1,8]naphthyridin-10(5H)-yl)acetate] | < 20 | D (“D” > 7° C.) | > 50 |
| CCOc1c(Cl)ccc2c(=O)c3ccc(N(CCOC)CC(F)F)nc3n(CC(=O)O)c12 [Compound 52, sodium 2-(8-chloro-2-((2,2-difluoroethyl)(2-methoxyethyl)amino)-9-ethoxy-5-oxobenzo[b][1,8]naphthyridin-10(5H)-yl)acetate] | 100 to 300 | C (“C” = 2-7° C.) | > 50 |
| CN(C)c1c(Cl)ccc2c(=O)c3ccc(N(C)CC4CC(F)(F)C4)nc3n(CC(=O)O)c12 [Compound 26, sodium 2-(8-chloro-2-(((3,3-difluorocyclobutyl)methyl) (methyl)amino)-9-(dimethylamino)-5-oxobenzo[b][1,8]naphthyridin-10(5H)-yl)acetate] | < 20 | D (“D” > 7° C.) | > 50 |
| COC1CC(CN(CC2CC2)c2ccc3c(=O)c4ccc(Cl)c(SC)c4n(CC(=O)O)c3n2)C1 (stereo not drawn) [Compound 40, sodium 2-(8-chloro-2-((cyclopropylmethyl)((3-methoxycyclobutyl)methyl)amino)-9-(methylthio)-5-oxobenzo[b][1,8]naphthyridin-10(5H)-yl)acetate] | 20 to 100 | D (“D” > 7° C.) | > 50 |
| CO[C@H]1C[C@@H](N(C)c2ccc3c(=O)c4ccc(C)c(SC)c4n(CC(=O)O)c3n2)C1 [Compound 69, 2-(2-(((1s,3s)-3-methoxycyclobutyl)(methyl)amino)-8-methyl-9-(methylthio)-5-oxobenzo[b][1,8]naphthyridin-10(5H)-yl)acetic acid] | < 20 | D (“D” > 7° C.) | > 50 |
| CSc1c(Cl)ccc2c(=O)c3ccc(N(C)CCn4ccnc4C)nc3n(CC(=O)O)c12 [Compound 81, sodium 2-(8-chloro-2-{methyl[2-(2-methylimidazol-1-yl)ethyl]amino}-9-(methylsulfanyl)-5-oxobenzo[b]1,8-naphthyridin-10-yl)acetate] | 20 to 100 | D (“D” > 7° C.) | 5 to 25 |
